Results on one compound are retold here after patent publication US20180171411A1, “GFRalpha1 AS A BIOMARKER FOR CISPLATIN-INDUCED CHEMORESISTANCE AND METASTASIS” (THE BOARD OF REGENTS OF THE UNIVERSITY OF TEXAS SYSTEM, priority 2015, published 2018).

Molecules are shown by their SMILES.

The subject of assay [1] is GFRα1 expression in MG-63 and U-2 OS cells. Kind of assay: Immunoblot of GFRα1 expression after chemotherapeutic agents. Format: cell-based, human. The following applies: doxorubicin 5 μM, cisplatin 20 μM, methotrexate 1 mM, 24 hr. The procedure: FIG. 1. Cisplatin induces GFRα1 expression in osteosarcoma cells. (a-c) Immunoblot analysis of osteosarcoma cell lysates with antibodies specific for GFRα1 and β-actin. (a) MG-63 and U-2 OS cells were treated with doxorubicin (5 μM), cisplatin (20 μM), or methotrexate (1 mM) for 24 hr. Immunoblot analysis of GFRα1 (left) and quantification of GFRα1 expression (right) after treatment of chemotherapeutic agents. (b) MG-63 and U-2 OS cells were treated with different concentrations of cisplatin for 24 hr. (c) MG-63 and U-2 OS cells were treated with cisplatin (20 μM) and collected at the indicated time. (d and e) Quantitative real-time PCR of GFRα1 mRNA expression after cisplatin treatment. Representative images (top) and quantitative analysis (bottom) of GFRα1 mRNA expression. The values are presented as a mean±s.d.m (n=3). ** denotes p<0.05 by t-test. (d) MG-63 and U-2 OS cells were treated with different concentrations of cisplatin for 24 hr. (e) MG-63 and U-2 OS cells were treated with cisplatin (20 μM) and collected at the indicated time.
Immunoblotting. Cells were washed with PBS and lysed in RIPA Buffer (Pierce, Rockford, Ill.). The protein content was determined using a dye-binding microassay (Bio-Rad, Hercules, Calif.), and 10-50 μg protein per lane was electrophoresed on 4-12% SDS polyacrylamide gels. Proteins were blotted onto Hybond ECL membranes (Amersham Pharmacia Biotech, Piscataway, N.J.). Two protein ladders were used for molecular weight determination (GenDEPOT, Barker, Tex.). The blotted proteins were detected using an enhanced chemiluminescence detection system (iNtRON, Seoul, Korea). Data were quantified and analyzed with Image-J software.
In general terms: A western blot detects proteins with antibodies after separation by electrophoresis.

Assay [2] deals with MG-63 cells. Kind of assay: Transmission electron microscopy of autophagic vacuoles. Format: cell-based, human. The following applies: control MG-63 cells; cisplatin 20 μM, 24 hr. Here is the method: FIG. 3. GFRα1-induced autophagy enhances the chemoresistance of osteosarcoma cells induced by cisplatin. (a) Control and GFRα1-deficient MG-63 cells were transiently transfected with a mRFP-GFP tandem fluorescent-tagged LC3 (mRFP-GFP-LC3) vector and then treated with cisplatin (20μM) for 24 hr. Left, representative images of RFP-LC3 and GFP-LC3 puncta. Scale bar, 20 μm. Right, quantitative analysis of the number of yellow puncta and the number of RFP-LC3 puncta in the combined images. The values are represented as a mean±s.d.m. (n=3). ** denotes p<0.05 by t-test. (b) Control and GFRα1-deficient MG-63 cells were treated with cisplatin (20 μM) for 24 hr and then stained with acridine orange. […] Bottom, quantitative analysis of the number of AVOs. […] (c) Control and GFRα1-deficient MG-63 cells were treated with cisplatin (20 μM) for 24 hr and then analyzed by TEM. Top, representative images of autophagic vacuoles (yellow arrows) detected after cisplatin treatment in control MG-63 cells. […] Bottom, quantitative analysis of the number of autophagic vacuoles. […] (e) Quantitative analysis of the number of yellow puncta and the number of RFP-LC3 puncta in control and GFRα1-overexpressing MG-63 cells. […] Bottom, quantitative analysis of the number of AVOs. […] (h) Control and GFRα1-overexpressing MG-63 cells were treated with cisplatin (20 μM) for 24 hr and then analyzed by TEM. […]

As to `N.N.[Cl][Pt][Cl]` [cisplatin, Cis-Diamineplatinum(II) dichloride], the “level of GFRα1 expression” value in assay [1] was “significantly increased”. The “number of autophagic vacuoles per cell” value in assay [2] is on record as “markedly increased”.
